Data on 4 molecules can be found in patent US8211881B2, “Cholesterol-mimetic pyrene probes” (Centre National de la Recherche Scientifique, priority 2005, dated 2012).

For series [1] the following is noted: in DMPC; cited from earlier work.
Series [2] has as its target T1, GPCR μ with opioids (hMOP) (Homo sapiens, UniProt P35372).
T1 construct: expressed in transfected cells; host or cells: SH-SY5Y neuroblastoma cells
Briefly: Fluorescence spectra of SH-SY5Y cells overexpressing hMOP, marked with pyrene-ketone-cholesterol (4), before and after agonist addition (FIG. 2). The series is classed as cell-based. To be noted: agonist under saturation conditions, probe of formula (4).
Protocol: Confluence cells immobilised on a 22 by 22 mm silica slice are placed in a 35 mm diameter Petri dish and covered by 1.2 ml of a 0.22 μm-filtered solution and composed of 15 ml of base medium (DMEM with 1% foetal calf serum) plus 1 ml solution of methyl-β-cyclodextrins loaded with Pyrene cholesterol (4) or (7). The mixture is left to incubate at 37° C. for between 1 and 15 mn according to the desired marking rate. Then the medium is replaced 4 times with 1.2 ml of PBS Ca++Mg++.
The images are produced with a Zeiss axioplanll microscope using a 63× oil-immersion objective (Plan-Neofluoar, NA=1.4) and a CCD camera (C2400-75i Hamamatsu) equipped with the Argus 20 system (Hamamatsu) which removes the background noise directly on the preparation corresponding to the following mounting: after the slice carrying the marked cells has been turned upside-down on a slide provided with cross-pieces, a chamber the volume of which is close to 120 μl is thus produced and filled with DMEM medium . […]
The fluorescence spectra are produced on these mountings on an AMINCO 500 spectrofluorimeter. The excitation wavelength is 335 nm bp 5 nm, the emission spectrum being recorded after 370 nm bp 4 nm and with a resolution of 0.25 nm per point.

T1 sequence (P35372 whole entry): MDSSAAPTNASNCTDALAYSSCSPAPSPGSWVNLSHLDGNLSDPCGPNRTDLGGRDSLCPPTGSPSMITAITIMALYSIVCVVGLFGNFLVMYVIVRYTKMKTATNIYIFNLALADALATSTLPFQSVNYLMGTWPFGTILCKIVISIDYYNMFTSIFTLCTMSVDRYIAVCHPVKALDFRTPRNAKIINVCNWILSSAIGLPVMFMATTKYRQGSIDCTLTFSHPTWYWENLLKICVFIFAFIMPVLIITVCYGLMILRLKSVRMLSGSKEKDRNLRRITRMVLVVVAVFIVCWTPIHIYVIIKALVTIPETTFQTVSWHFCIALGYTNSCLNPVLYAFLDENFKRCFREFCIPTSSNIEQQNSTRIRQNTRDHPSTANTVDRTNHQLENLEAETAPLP

Consider `C[C@]12CC[C@H]3[C@@H](CC=C4C[C@@H](O)CC[C@@]43C)[C@@H]1CC[C@@H]2C(=O)CCc1ccc2ccc3cccc4ccc1c2c34` [pyrene-ketone-cholesterol, 3β-hydroxy-pregn-5-ene-21-(1-methylpyrenyl)-20-one], for which the melting point (in general, the temperature of the solid-liquid transition) turned out to be 199 °C.

With `CC(C)CCC[C@@H](C)[C@H]1CC[C@H]2[C@@H]3CC=C4C[C@@H](O)CC[C@]4(C)[C@H]3CC[C@]12C` [cholesterol], the “solubility in membrane lipids” value in series [1] is reported as 68%.

With `C[C@@H](NC(=O)[C@@H](N)Cc1ccc(O)cc1)C(=O)NCC(=O)N(C)[C@@H](Cc1ccccc1)C(=O)NCCO` [DAMGO], the “change of membrane polarity (band I1 intensity, I3 and I4 unchanged) after addition of the agonist” value in series [2] is recorded as “reduction in the membrane polarity”.

`C=C(CCc1ccc2ccc3cccc4ccc1c2c34)[C@H]1CC[C@H]2[C@@H]3CC=C4C[C@@H](O)CC[C@]4(C)[C@H]3CC[C@]12C` gave a melting point of 84 °C.
